Test system: RPS19-insufficient cord blood CD34+ HSPCs
Assay: In vitro differentiation of cord blood CD34+ HSPCs transduced with shRNA against RPS19 (cell count and flow cytometry); as to erythroid expansion in RPS19-insufficiency, % of control: untreated 8.7%
Type: cell-based, human
Details: for increase of erythropoiesis in RPS19-insufficiency compared with control treated cells: CD235+ erythroid cells after 15 days, inhibitors at working concentrations for TGFβ inhibition every three days, Fig. 1d
Method: Cells were plated at 2000 cell per well in 96-well plates in the presence or absence of doxycycline. Relative amounts of live cells were quantified by luciferase-based Cell titer-Glo® assay. b TGFβR1 inhibitors were assessed for their ability to increase cell expansion in RPS19-insuffiency. As a control, vehicle alone (no doxycycline) is represented at the far left while all other samples were treated with doxycycline to induce RPS19-insufficiency. c Kit^+ erythroid progenitors were grown in the absence of doxycycline and in the presence of 10 µM of indicated compound. In addition, cells were treated with 5 ng/ml of TGFβ1 for 5 days before being subjected to Cell titer-Glo® assay. d Differentiating cord blood CD34^+ progenitors were transduced with shRNA against luciferase or RPS19 and treated with inhibitors at working concentrations for TGFβ inhibition every three days. […] Cells were counted and CD235^+ erythroid (i and iii) and CD11b^+ myeloid cell (ii and iv) percentages were determined by flow cytometry. The number of erythroid or myeloid cells is expressed as a percentage of the number of that lineage with no cytokine or drug treatment. Bars represent means ± SD with individual data points overlaid. n = 3 independent experiments performed in triplicate. Statistics: two-tailed Student’s t test, significant *p < 0.05. Also see Supplementary Fig. 1. Erythroid expansion is depicted in red while myeloid is in purple. Source data are provided as a Source Data file.
Cells were counted and assessed for cell surface expression of CD235. b Lin-Kit^+ hematopoietic progenitors were obtained from three mouse embryos expressing tetracycline-inducible shRNA against RPS19 at day E14.5 or three untreated mice, and thee mature RPL11^+/+ or three mature RPL11^+/lox mice treated with tamoxifen for eight weeks. […] Values were expressed as a percentage relative to untreated controls. c, d Intracellular phosphorylation of NLK at Thr298 was determined by capillary electrophoresis using the Peggy Sue™ Automated Western blotting platform. After lysis, 4 µg of protein from the CD235^+ population was probed against pThr298-NLK and normalized to GAPDH. […] After counting the total cell population, the ratio of CD235^+ erythroblasts was determined by flow cytometry and number of CD235^+ erythroblasts calculated. This was expressed as a percentage of the average number of erythroid cells present in untreated healthy controls. f NLK phosphorylation was assessed by capillary electrophoresis as above. Bars represent means ± SD with individual data points overlaid. […] Statistics: two-tailed Student’s t test, significant *p < 0.05. Also see Supplementary Fig. 8. Source data are provided as a Source Data file.
Primary human CD34^+ hematopoietic stem and progenitor cells were purified from cord or peripheral blood (New York Blood Center) or from human fetal liver tissue (Advanced Bioscience Resources and University of California, Los Angeles Center for AIDS Research) by using magnetic-activated cell sorting (Miltenyi Biotec) and were cryopreserved. Upon thawing, cells were cultured in x-Vivo15 media (Lonza) containing 10% fetal bovine serum, fms-related tyrosine kinase 3 (50 ng/ml), […] (50 ng/ml), interleukin-3 (IL-3; 20 ng/ml), interleukin-6 (IL-6; 20 ng/ml), and stem cell factor (50 ng/ml). When applied, TGFβ1 was added at 5 ng/ml. Kp53A1 cells were obtained from Javier Leon and cultured in DMEM supplemented with 10% fetal bovine serum at 37 or 32 °C.

| Structure (SMILES) | increase of erythropoiesis in RPS19-insufficiency compared with control treated cells [fold] | erythroid expansion (CD235) in RPS19-insufficient HSPCs (12 days, recommended concentrations, rebuttal Experiment 12) | improvement of erythropoiesis (comparison of SD208 with p38 inhibitors) (CD235+, 12 days, recommended concentrations, Supplementary Fig. 2b) | activity at 5 µM (Homo sapiens, 360 h, read-out: erythroid expansion in RPS19-insufficiency, % of control) [%] | erythroid expansion, % of vehicle treated control cells (RPS19-insufficient cells, 5 µM, with or without TGFβ, Fig. 1e.iii) [%] | RPS19-insufficient CD235+ erythroblast expansion, % of ribosome-competent controls (SD208 alone every three days, 15 days, untreated […], Fig. 2d.i) [%] | RPS19-insufficient CD235+ erythroblast expansion, % of ribosome-competent controls, combined with siRNA against NLK (SD208 plus siNLK, 15 days, untreated […], Fig. 2d.i) [%] | effect on differentiation of non-erythroid hematopoietic lineages (control or ribosome-insufficient cells) |
| --- | --- | --- | --- | --- | --- | --- | --- | --- |
| NC(=O)c1ccc(-c2nc(-c3ccc4c(c3)OCO4)c(-c3ccccn3)[nH]2)cc1 [SB431542] | 3.2 |  |  |  |  |  |  |  |
| Fc1ccc(Cl)cc1-c1nc(Nc2ccncc2)c2nccnc2n1 [SD208] | 6.3 | significantly increased | improved erythropoiesis | 38.7 | 428.6 | 40.3 | 43.6 | did not impact |

— PMC7334220, “Diamond Blackfan anemia is mediated by hyperactive Nemo-like kinase” (Nature Communications, 2020)
